Consider 14 compounds from paper PMC9322122, “Development of (4-Phenylamino)quinazoline Alkylthiourea Derivatives as Novel NF-κB Inhibitors” (Pharmaceuticals, 2022).

Structures are written as SMILES.

One data set has as its system NF-κB. In words: NF-κB luciferase reporter assay. In kind it is cell-based. Particulars: Homo sapiens, NF-κB-luciferase-transfected HEK293 cells, TNFα 50 ng/mL; for inhibition at 10 µM: mean ± SEM, n = 3, read-out: NF-κB Luciferase Activity Inh %. On the procedure: NF-κB Luciferase Reporter Vector was purchased from Signosis (Santa Clara, CA, USA) and transfected into HEK-293 cells using FuGENE HD (Promega, Fitchburg, MA, USA) following the manufacturer’s protocol. The transfected cells were incubated in serum-free DMEM for 16 h and then treated with DMSO or indicated compounds. After 3 h, cells were treated with or without 50 ng/mL of Recombinant Human TNFα Protein (R&D systems, Minneapolis, MN, USA) for another 3 h. The protein lysates were analyzed using Steady-Glo® Luciferase Assay System (Promega, Fitchburg, MA, USA) and TECAN Infinite 200 pro (Männedorf, Switzerland).

The nature of data set [1]: Cell viability (WST-1), HEK293. In kind it is cell-based. Particulars: human, HEK293 cells, mean ± SEM, n = 3. As for the experimental part:
(§1) Cells were incubated with the WST-1 reagent (Thermo Fisher Scientific, Waltham, MA, USA) at 37 °C for 2 h. The cell viability was determined by spectrophotometer at 450 nm.
(In general: Tetrazolium dyes change colour on reduction, which living cells bring about.)

Data set [2] is described as follows: Cell viability (WST-1), A549. In kind it is cell-based. Particulars: human, A549 cells, mean ± SEM, n = 3. On the procedure: as §1
In another data set the target is Recombinant EGFR kinase (Homo sapiens, UniProt P00533). In words: Recombinant EGFR kinase activity. Format: biochemical. Particulars: read-out: Recombinant EGFR Kinase Activity (%inh at 150 nM).
A further data set concerns TNFα production. In words: TNFα production in LPS-activated dTHP-1 cells (ELISA). In kind it is cell-based. The settings on record: Homo sapiens. As for the experimental part: (§2) The HEK-293 (ATCC Cat# CRL-1573, RRID:CVCL_0045) and human monocytic THP−1 cells (ATCC Cat# TIB-202, RRID:CVCL_0006) were, respectively, cultured in DMEM and RPMI 1640 media supplemented with 10% fetal bovine serum, 2 mM L-glutamine, and 1× Antibiotic-Antimycotic at 37 °C in a humidified incubator with 5% CO2. THP−1 cells were differentiated by 100 nM phorbol-12-myristate-13-acetate (PMA) for 4 h and then rested for 44 h as dTHP−1 cells.
(§3) The dTHP−1 cells were treated with indicated compounds for 3 h and then activated with or without 100 ng/mL lipopolysaccharide (LPS; E. coli 0111:B4) for another 24 h. The levels of human IL-6 and TNFα in supernatants were measured by DuoSet® ELISA Development System (R&D systems, Minneapolis, MN, USA) according to the manufacturer’s protocol.
Background: An ELISA detects its analyte on a solid surface through an enzyme-linked reagent.

Another data set deals with IL-6 production. In words: IL-6 production in LPS-activated dTHP-1 cells (ELISA). Particulars: Homo sapiens. Format: cell-based, human. As for the experimental part: as §2, §3
A further data set relates to dTHP−1 cells. In words: Cell viability of dTHP-1 cells with or without LPS. In kind it is cell-based, human. Particulars: in % (unit assumed). On the procedure: as §2, §1, §3
The mark [3] stands for this setting: LPS-activated dTHP-1 cells, 24 h.

Recombinant EGFR kinase, sequence (P00533 25-1210): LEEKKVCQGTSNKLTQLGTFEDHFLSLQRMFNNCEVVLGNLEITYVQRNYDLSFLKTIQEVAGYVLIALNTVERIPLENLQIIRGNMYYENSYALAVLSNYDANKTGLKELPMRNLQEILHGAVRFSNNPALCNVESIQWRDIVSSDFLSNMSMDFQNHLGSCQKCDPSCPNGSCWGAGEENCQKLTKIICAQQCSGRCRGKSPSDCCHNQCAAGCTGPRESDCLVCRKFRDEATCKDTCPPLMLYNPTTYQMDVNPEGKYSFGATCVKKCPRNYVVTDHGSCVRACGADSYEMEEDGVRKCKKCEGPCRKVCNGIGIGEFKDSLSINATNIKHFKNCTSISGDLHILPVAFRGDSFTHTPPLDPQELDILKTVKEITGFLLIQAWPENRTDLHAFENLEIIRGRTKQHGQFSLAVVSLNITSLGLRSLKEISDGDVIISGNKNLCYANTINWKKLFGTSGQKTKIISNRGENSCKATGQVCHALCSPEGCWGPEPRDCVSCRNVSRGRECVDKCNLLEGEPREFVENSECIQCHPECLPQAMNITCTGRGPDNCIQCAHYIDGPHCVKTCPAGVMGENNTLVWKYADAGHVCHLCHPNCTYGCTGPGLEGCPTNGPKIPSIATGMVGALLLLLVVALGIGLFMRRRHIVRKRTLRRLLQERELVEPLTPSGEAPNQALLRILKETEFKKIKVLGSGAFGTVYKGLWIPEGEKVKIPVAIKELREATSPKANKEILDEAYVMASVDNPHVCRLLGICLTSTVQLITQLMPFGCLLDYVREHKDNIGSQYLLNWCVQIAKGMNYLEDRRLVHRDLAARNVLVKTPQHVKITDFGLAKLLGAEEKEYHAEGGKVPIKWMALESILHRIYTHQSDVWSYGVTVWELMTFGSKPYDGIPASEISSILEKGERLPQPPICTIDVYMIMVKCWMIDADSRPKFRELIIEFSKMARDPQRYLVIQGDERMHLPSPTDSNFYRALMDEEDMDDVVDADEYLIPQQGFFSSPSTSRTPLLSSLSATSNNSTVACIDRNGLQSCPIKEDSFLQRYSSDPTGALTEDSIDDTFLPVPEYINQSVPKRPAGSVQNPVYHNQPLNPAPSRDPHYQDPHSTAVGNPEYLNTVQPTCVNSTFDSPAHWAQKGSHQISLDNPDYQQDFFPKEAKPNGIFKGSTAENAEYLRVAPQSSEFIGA

Regarding `C#Cc1cccc(Nc2ncnc3ccc(NC(=O)NCc4cccc(Cl)c4)cc23)c1` [Compound 14, 1-(3-Chlorobenzyl)-3-(4-((3-ethynylphenyl)amino)quinazolin-6-yl)urea], the melting point (usually the temperature, or range, at which the solid turns liquid) fell in the range of 222.4 to 228.8 °C. In the data set on NF-κB, the inhibition at 10 µM was 58.5 ± 0.9% and the IC50 (usually the concentration at which inhibition is half-maximal) is 8 µM. The viability (as a rule, a read-out of living cells in per cent, often relative to untreated cells) at 10 µM in data set [1] turned out to be 110 ± 2.7%. For the same compound, the viability at 10 µM in data set [2] was 98.6 ± 3%. Besides, the inhibition at 0.15 µM at Recombinant EGFR kinase is 44.5%.
Compound `FC(F)(F)c1ccc(CNC(=S)Nc2ccc3ncnc(Nc4cccc(Cl)c4)c3c2)cc1` [Compound 3, 1-(4-((3-Chlorophenyl)amino)quinazolin-6-yl)-3-(4-(trifluoromethyl)benzyl)thiourea] came in with a melting point of 165 to 167 °C. Moreover, in the data set with NF-κB, the inhibition at 10 µM was 46.5 ± 4.9% and the IC50 is greater than 10 µM. In addition, the viability at 10 µM in data set [1] amounted to 68.9 ± 6.4%. For the same compound, the viability at 10 µM in data set [2] worked out at 73.4 ± 4.3%. Moreover, at Recombinant EGFR kinase, the inhibition at 0.15 µM was found to be 70%.
`COc1cccc(CNC(=S)Nc2ccc3ncnc(Nc4cccc(Cl)c4)c3c2)c1` [Compound 8, 1-(4-((3-Chlorophenyl)amino)quinazolin-6-yl)-3-(3-methoxybenzyl)thiourea] registered a melting point of 183 to 185 °C. In the data set with NF-κB, the inhibition at 10 µM was 76.1 ± 2.6% and the IC50 was found to be 2.3 µM. The viability at 10 µM in data set [1] was 100 ± 6.9%. In addition, the viability at 10 µM in data set [2] was determined as 101 ± 2.3%. The inhibition at 0.15 µM at Recombinant EGFR kinase came to 40%.
As for `Fc1ccc(CNC(=S)Nc2ccc3ncnc(Nc4cccc(Cl)c4)c3c2)cc1` [Compound 5, 1-(4-((3-Chlorophenyl)amino)quinazolin-6-yl)-3-(4-fluorobenzyl)thiourea], the melting point was in the range of 164 to 166 °C. Further, in the data set on NF-κB, the inhibition at 10 µM stood at 79.1 ± 0.8% and 1.9 µM corresponded to half-maximal inhibition (IC50). In data set [1], the viability at 10 µM amounted to 67 ± 6.1%. Also, in data set [2], the viability at 10 µM is 65.3 ± 1.1%. The inhibition at 0.15 µM at Recombinant EGFR kinase worked out at 72%.
In turn, `COc1ccc(CNC(=S)Nc2ccc3ncnc(Nc4cccc(Cl)c4)c3c2)c(OC)c1` [Compound 7, 1-(4-((3-Chlorophenyl)amino)quinazolin-6-yl)-3-(2,4-dimethoxybenzyl)thiourea] registered a melting point of 204 to 206 °C. In the data set on NF-κB, the inhibition at 10 µM was determined as 27.1 ± 3.4% and the IC50 is greater than 10 µM. Besides, the viability at 10 µM in data set [1] was found to be 85.9 ± 2.5%. Besides, the viability at 10 µM in data set [2] is 99.5 ± 1.4%. Also, the inhibition at 0.15 µM on Recombinant EGFR kinase amounted to 48%. The inhibition at 7.5 µM with TNFα production (7.5 μM, LPS 100 ng/mL for 24 h, dTHP-1 cells, read-out: TNFα Production Inh % (7.5 μM)) turned out to be 37 ± 4.9%. Besides, the inhibition at 15 µM in the data set on TNFα production (15 μM, LPS 100 ng/mL for 24 h, dTHP-1 cells, read-out: TNFα Production Inh % (15 μM)) turned out to be 50.3 ± 5.5%. In the data set with TNFα production (setting [3]), the half-inhibitory concentration (IC50) came out at 11.9 ± 0.7 µM. Further, the inhibition at 7.5 µM in the data set on IL-6 production (7.5 μM, LPS 100 ng/mL for 24 h, dTHP-1 cells, read-out: IL-6 Production Inh % (7.5 μM)) was 71 ± 3.4%. The inhibition at 15 µM in the data set with IL-6 production (15 μM, LPS 100 ng/mL for 24 h, dTHP-1 cells, read-out: IL-6 Production Inh % (15 μM)) is 84 ± 0.82%. For the same compound, half-maximal inhibition in the data set on IL-6 production (setting [3]) (IC50) required 1.2 ± 0.16 µM. Also, the “Cell viability of dTHP-1 cells, 5 μM, LPS” value in the data set on dTHP−1 cells (5 μM (so in the source), LPS 100 ng/mL for 24 h) is 91.9 ± 4.2. Also, the “Cell viability of dTHP-1 cells, 5 μM, without LPS” value in the data set with dTHP−1 cells (5 μM (so in the source), no LPS) worked out at 96.8 ± 4.2. Besides, the “Cell viability of dTHP-1 cells, 7.5 μM, without LPS” value in the data set with dTHP−1 cells (7.5 μM, no LPS) is listed as 94.4 ± 0.61.
`S=C(NCc1ccco1)Nc1ccc2ncnc(Nc3cccc(Cl)c3)c2c1` [Compound 10, 1-(4-((3-Chlorophenyl)amino)quinazolin-6-yl)-3-(furan-2-ylmethyl)thiourea] came in with a melting point of 195.6 to 198.2 °C. Besides, in the data set with NF-κB, the inhibition at 10 µM worked out at 76.1 ± 2.3% and the 50% inhibitory concentration (IC50) came out at 4.3 µM. In addition, the viability at 10 µM in data set [1] amounted to 71.7 ± 3.1%. For the same compound, the viability at 10 µM in data set [2] came out at 74.4 ± 11.7%. Besides, the inhibition at 0.15 µM on Recombinant EGFR kinase came to 79.1%.
In turn, `O=C(NC(=O)c1ccccc1)Nc1ccc2ncnc(Nc3cccc(Cl)c3)c2c1` [Compound 15, N-((4-((3-Chlorophenyl)amino)quinazolin-6-yl)carbamoyl)benzamide] had a melting point of 252.4 to 254 °C. In the data set on NF-κB, the inhibition at 10 µM is 48.3 ± 9.3% and the IC50 is greater than 10 µM. In addition, the viability at 10 µM in data set [1] turned out to be 114 ± 2.6%. In data set [2], the viability at 10 µM was found to be 100 ± 4.5%. At Recombinant EGFR kinase, the inhibition at 0.15 µM is 26%.
Compound `O=C(NCc1cccc(Cl)c1)Nc1ccc2ncnc(Nc3cccc(Cl)c3)c2c1` [Compound 12, 1-(3-Chlorobenzyl)-3-(4-((3-chlorophenyl)amino)quinazolin-6-yl)urea] returned a melting point of 225.5 to 227 °C. In addition, in the data set with NF-κB, the inhibition at 10 µM was 42.7 ± 9.3% and the concentration for half-maximal inhibition (IC50) was greater than 10 µM. The viability at 10 µM in data set [1] turned out to be 114 ± 3.2%. For the same compound, the viability at 10 µM in data set [2] was 101 ± 4.2%. Moreover, the inhibition at 0.15 µM at Recombinant EGFR kinase came out at 34.6%.
`S=C(NCc1ccc(Cl)cc1)Nc1ccc2ncnc(Nc3cccc(Cl)c3)c2c1` [Compound 4, 1-(4-Chlorobenzyl)-3-(4-((3-chlorophenyl)amino)quinazolin-6-yl)thiourea] gave a melting point of 166 to 168 °C. In the data set with NF-κB, the inhibition at 10 µM stood at 31.9 ± 9.6% and the half-maximal inhibitory concentration (IC50) is greater than 10 µM. Besides, the viability at 10 µM in data set [1] came to 95.9 ± 3.4%. Moreover, in data set [2], the viability at 10 µM came out at 98.1 ± 1.9%. On Recombinant EGFR kinase, the inhibition at 0.15 µM worked out at 56%.
In the case of `O=C(NCc1cccc(F)c1)Nc1ccc2ncnc(Nc3cccc(Cl)c3)c2c1` [Compound 13, 1-(4-((3-Chlorophenyl)amino)quinazolin-6-yl)-3-(3-fluorobenzyl)urea], the melting point is 210.8 to 212 °C. For the same compound, in the data set on NF-κB, the inhibition at 10 µM worked out at 53.3 ± 10% and the IC50 worked out at 8.1 µM. Further, the viability at 10 µM in data set [1] is 95.5 ± 6.1%. The viability at 10 µM in data set [2] was 104 ± 5%. Moreover, the inhibition at 0.15 µM at Recombinant EGFR kinase stood at 23.3%.
The compound `S=C(NCc1cccs1)Nc1ccc2ncnc(Nc3cccc(Cl)c3)c2c1` [Compound 9, 1-(4-((3-Chlorophenyl)amino)quinazolin-6-yl)-3-(thiophen-2-yl-methyl)thiourea] had a melting point of 178.8 to 180.7 °C. Moreover, in the data set on NF-κB, the inhibition at 10 µM came out at 98 ± 0.4% and the IC50 was determined as 2.8 µM. The viability at 10 µM in data set [1] was determined as 13.9 ± 0.7%. Also, the viability at 10 µM in data set [2] came out at 50.7 ± 2.4%. Further, the inhibition at 0.15 µM at Recombinant EGFR kinase was 69.8%.
Compound `S=C(NCc1cccnc1)Nc1ccc2ncnc(Nc3cccc(Cl)c3)c2c1` [Compound 11, 1-(4-((3-Chlorophenyl)amino)quinazolin-6-yl)-3-(pyridin-3-ylmethyl)thiourea] came in with a melting point of 205.6 to 207.9 °C. In addition, in the data set with NF-κB, the inhibition at 10 µM was 44.7 ± 5.8% and the IC50 was greater than 10 µM. Besides, the viability at 10 µM in data set [1] is 62.8 ± 4%. In addition, the viability at 10 µM in data set [2] worked out at 98.9 ± 4.1%. In addition, the inhibition at 0.15 µM on Recombinant EGFR kinase amounted to 66%.
For `O=C(NC(=S)Nc1ccc2ncnc(Nc3cccc(Cl)c3)c2c1)c1ccccc1` [Compound 16, N-((4-((3-Chlorophenyl)amino)quinazolin-6-yl)carbamothioyl)benzamide], the melting point was 186.1 to 188.5 °C. For the same compound, in the data set on NF-κB, the inhibition at 10 µM was 58.2 ± 5.2% and the IC50 came out at 7 µM. In addition, the viability at 10 µM in data set [1] is 102 ± 4%. Also, the viability at 10 µM in data set [2] is 102 ± 1.6%. Further, at Recombinant EGFR kinase, the inhibition at 0.15 µM amounted to 48.9%.
`CC(C)(C)c1ccc(CNC(=S)Nc2ccc3ncnc(Nc4cccc(Cl)c4)c3c2)cc1` [Compound 1, 1-(4-(tert-Butyl)benzyl)-3-(4-((3-chlorophenyl)amino)quinazolin-6-yl)thiourea] registered a melting point of 203 to 205 °C. Moreover, in the data set with NF-κB, the inhibition at 10 µM was 41.6 ± 3.8% and the IC50 was greater than 10 µM. In addition, the viability at 10 µM in data set [1] stood at 73.9 ± 4.6%. The viability at 10 µM in data set [2] worked out at 91.1 ± 3.4%. Besides, the inhibition at 0.15 µM at Recombinant EGFR kinase was 42%.
